Values joined by “and” are separate entries in the source; they are usually repeats but may differ in a detail not shown here. Identical values can stand only once. Like-named read-outs stand apart in the source and are kept apart here.
Key:
[1] = target: T1, MTHFS (Mus musculus, UniProt Q9D110); test: Inhibition of MTHFS by folates/antifolates, reaction specificity (Ki, Km); assay type: biochemical; conditions: for Km: substrate of MTHFS
T1 sequence (Q9D110 1-203): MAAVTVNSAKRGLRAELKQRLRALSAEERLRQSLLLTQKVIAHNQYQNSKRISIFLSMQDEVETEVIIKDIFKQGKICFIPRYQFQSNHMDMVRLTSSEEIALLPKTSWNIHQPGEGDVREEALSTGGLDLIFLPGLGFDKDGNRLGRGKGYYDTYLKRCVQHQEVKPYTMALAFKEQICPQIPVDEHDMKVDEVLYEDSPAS
Experimental: Tissue samples were sonicated four times for 15 s in a buffer containing 100 mM HEPES pH 7.0, 100 mM sodium chloride, 5 mM EDTA, 1% Tween-20. The solution was clarified by centrifugation. MTHFS activity was determined using a spectrophotometer by monitoring the appearance of 5,10-methenyltetrahydrofolate, which has an absorbance maximum at 355 nm. For a typical assay, 50 μL of clarified tissue supernatant was added to a quartz cuvette containing 100 μM (6S)-5-formylTHF, 1 mM Mg-ATP and 100 mM MES, pH 6.0 and the rate of 5,10-methenylTHF formation was quantified. Activity measurements were normalized to total protein that was quantified using the Lowry-Bensadoun method (Bensadoun et al., “Assay of Proteins in the Presence of Interfering Materials,” Anal Biochem 70:241-250 (1976), which is hereby incorporated by reference in its entirety).
Several 10-formyl-substituted folates were screened for their ability to inhibit wild-type MTHFS.

[2] = target: T2, MTHFS.oxNADA.Cu^2+ complex (Mus musculus, UniProt Q9D110); test: MTHFS-mediated folate catabolism in vitro (HPLC, pABG formation); assay type: biochemical; conditions: 5 min incubation, five independent experiments
T2 construct: hexa-histidine tag; made in house; host or cells: E. coli BL21 Star
T2 sequence (Q9D110 1-203): T1 sequence (Q9D110 1-203)
Experimental: Recombinant mouse MTHFS protein (50 μM) was incubated with 50 μM CuCl2, 50 μM NADA (oxidized with equimolar amounts of sodium periodate, extracted with ethyl acetate, and diluted 1:1 with 1 M Tris pH 8.0), in 50 mM Tris pH 8.0 for 5 min, then dialyzed against 2 L of 50 mM Tris pH 8.0 at 4° C. for 5 hours to remove unbound CuCl2 and oxidized NADA. (6S)-[^3H]-5-methylTHF or (6S)-[^3H]-5-formylTHF, were evaporated to dryness using a speedvac, resuspended in 20 μL of 50 μM unlabeled (6S)-5-methylTHF or (6S)-5-formylTHF in 100 mM MES pH 6.5, then approximately 275,000 cpm of the labeled folate was added immediately to either the dialyzed mouse MTHFS protein or the dialysis buffer as a control. The mixture was incubated 5 min at room temperature, then either analyzed immediately by HPLC or flash frozen using dry ice/ethanol. The reactions were spiked with a mixture of unlabeled pABG, (6R,S)-5-formylTHF, and (6S)-5-methylTHF, then analyzed on a Shimadzu HPLC equipped with a diode array UV spectrophotometric detector and a Luna 5μ 250×4.6 mm C18 column (Phenomenex). […] For each analysis, 1.0 ml fractions were collected into scintillation tubes, and the tritium was quantified using a Beckman LS 6500 liquid scintillation counter. […]

[3] = target: T3, MTHFS (Homo sapiens, UniProt P49914); conditions: cited from earlier work
T3 sequence (P49914 1-203): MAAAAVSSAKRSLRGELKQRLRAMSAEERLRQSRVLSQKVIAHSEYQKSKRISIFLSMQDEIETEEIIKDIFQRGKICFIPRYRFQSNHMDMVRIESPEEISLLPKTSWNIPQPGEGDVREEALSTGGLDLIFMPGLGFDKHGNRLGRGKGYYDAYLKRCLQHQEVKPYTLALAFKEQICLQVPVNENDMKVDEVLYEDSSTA

[4] = test system: MCF-7 cells; test: Folate turnover in cultured cells (pulse-chase); assay type: cell-based, human; conditions: 20 μM in chase medium
Experimental: Cell monolayers at 75% confluence were washed with PBS, then labeled for 12 h in defined αMEM lacking folate and glycine and supplemented with 25 nM (6S)-[^3H]5-formylTHF. For the chase, cell monolayers were washed with 10 ml of PBS, trypsinized, and pelleted by centrifugation. The cells were seeded in triplicate (1×10^6 cells) into 100 mm culture plates containing 10 ml of defined αMEM supplemented with 2 μM folic acid. Catecholamines (20 μM dopamine, NADA, and L-dopa) were prepared freshly and added to the chase media prior to the addition of labeled cells. Cells were harvested at defined time points, the medium was removed and the tritium in the medium was quantified. The cell monolayers were washed with PBS and lysed with 0.2 M ammonium hydroxide. Tritium remaining in the cells was quantified using a Beckman LS 8100 liquid scintillation counter.
Catecholamine availability may be rate limiting for MTHFS-catalyzed folate catabolism in MCF-7 cells. The effects of exogenous catecholamines on folate turnover rates were determined using pulse-chase analyses in MCF-7 cells. Folate turnover in MCF-7 cells labeled with [^3H]-5-formylTHF is biphasic, with an initial rapid phase of turnover followed by a slower phase (Anguera et al., J. Biol. Chem. 278:29856-29862 (2003), which is hereby incorporated by reference in its entirety). Addition of 20 μM NADA to the chase medium increased the magnitude of the rapid phase of folate turnover by 12% compared to untreated cells (FIG. 11A). […] To distinguish between these two mechanisms, 20 μM dopamine and L-dopa were added to the chase medium. Dopamine is the precursor of NADA, and both dopamine and L-dopa can function as oxidants following oxidation of their diphenolic ring generating dopamine-quinone or dopa-quinone (Rescigno et al., Biochemical Pharmacology 56:1089-1096 (1998); Graham, D. G. Mol. Pharmacol. 14:633-643 (1978), which are hereby incorporated by reference in their entirety). […] The addition of dopamine to the culture medium increased the magnitude of the rapid phase of folate turnover by only 4% relative to untreated cells (FIG. 11A). The minor effect of dopamine on folate turnover may reflect N-acetyltransferase-mediated dopamine acetylation that generating NADA. […] In summary, the pulse chase experiments indicate that NADA may be limiting for in vivo folate catabolism, and NADA may function specifically as the electron acceptor molecule for MTHFS-mediated folate catabolism.

[5] = test system: MCF-7 cells; test: Radiolabeled folate accumulation in cultured cells treated with catecholamines; assay type: cell-based, human; conditions: 12 h, 25 nM (6S)-[^3H]-5-formylTHF, 0-150 μM catecholamine
Experimental: Cell monolayers at 70% confluence in 6-well plates were labeled for 12 h in defined αMEM lacking folate and glycine, but supplemented with 25 nM (6S)-[^3H]5-formylTHF and 0, 25 μM, 50 μM, 75 μM, 100 μM, or 150 μM NADA, dopamine, or epinephrine. Cells were harvested by washing with 5 mL PBS, trypsinized, and pelleted by centrifugation and viable cells (determined by their ability to exclude trypan blue) were quantified. The cell pellets were lysed with 0.2 M ammonium hydroxide, and the intracellular tritium was quantified using a Beckman LS 8100 liquid scintillation counter.
Because the addition of NADA to the chase medium increased folate turnover rates in MCF-7 cells, the effects of various catecholamines on [^3H]folate accumulation was investigated. Cells were cultured for 12 h in defined αMEM medium containing 25 nM (6S)-[^3H]-5-formylTHF and various concentrations of NADA, dopamine, and epinephrine, and cellular [^3H]folate content was determined.

[6] = 37° C., pH 6.0, inhibitor of MTHFS, read-out: Ki

| Compound | Ki [1, 6] [µM] | further results |
| --- | --- | --- |
| CN(CC1CNc2nc(N)[nH]c(=O)c2N1C=O)c1ccc(C(=O)N[C@@H](CCC(=O)N[C@@H](CCC(=O)N[C@@H](CCC(=O)O)C(=O)O)C(=O)O)C(=O)O)cc1 (mixture of isomers) [(6RS)5-formyl,10-methylTHFGlu3] | 20 ± 2 |  |
| Nc1nc2c(c(=O)[nH]1)N(C=O)C(CNc1ccc(C(=O)NC(CCC(=O)NC(CCC(=O)NC(CCC(=O)O)C(=O)O)C(=O)O)C(=O)O)cc1)CN2 (racemic) [(6RS)5-formylTHFGlu3] |  | Km ([1]; 37° C., pH 6.0): 0.4 ± 0.1 µM |
| Nc1nc2c(c(=O)[nH]1)N(C=O)C(CCNc1ccc(C(=O)N[C@@H](CCC(=O)O)C(=O)O)cc1)CN2 (mixture of isomers) [(6RS)5-formylTHHF, 5-formyltetrahydrohomofolate] | 0.7 ± 0.3 |  |
| Nc1nc2c(c(=O)[nH]1)N(C=O)C(CNc1ccc(C(=O)O)cc1)CN2 (racemic) [(6RS)5-formylTHPteroate] |  | Km ([1]; 37° C., pH 6.0): 33 ± 10 µM |
| Nc1nc2c(c(=O)[nH]1)NC(CN(C=O)c1ccc(C(=O)N[C@@H](CCC(=O)N[C@@H](CCC(=O)N[C@@H](CCC(=O)O)C(=O)O)C(=O)O)C(=O)O)cc1)CN2 (stereo partly drawn) [10-formylTHF triglutamate] |  | Ki ([1]; natural isomer, read-out: Ki for MTHFS): 0.015 µM |
| Nc1nc2ncc(CN(C=O)c3ccc(C(=O)N[C@@H](CCC(=O)O)C(=O)O)cc3)nc2c(=O)[nH]1 [10-formylfolic acid] | 13 ± 6 | fold increase of affinity for MTHFS by N^10 formylation of folic acid ([1]; relative to folic acid): ~5 fold |
| Nc1nc2c(c(=O)[nH]1)N(C=O)C(CNc1ccc(C(=O)N[C@@H](CCC(=O)O)C(=O)O)cc1)CN2 (stereo partly drawn) [(6S)5-formylTHF, 5-formyl tetrahydrofolate] |  | Km ([1]; 37° C., pH 6.0): 10 ± 3 µM |
| CN1c2c([nH]c(N)nc2=O)NC[C@@H]1CNc1ccc(C(=O)N[C@@H](CCC(=O)O)C(=O)O)cc1 [(6S)-5-methylTHF] |  | conversion to pABG by reconstituted mouse MTHFS.oxNADA.Cu^2+ protein [2]: Approximately 1%; Ki [3]: 18 µM |
| N[C@@H](Cc1ccc(O)c(O)c1)C(=O)O [L-dopa] |  | folate turnover rates compared to untreated cells [4]: did not affect folate turnover rates |
| CNC[C@H](O)c1ccc(O)c(O)c1 [epinephrine] |  | [^3H]folate accumulation [5]: Neither the addition of dopamine nor epinephrine to culture media impaired [^3H]folate accumulation |
| Nc1nc2ncc(CNc3ccc(C(=O)N[C@@H](CCC(=O)N[C@@H](CCC(=O)N[C@@H](CCC(=O)O)C(=O)O)C(=O)O)C(=O)O)cc3)nc2c(=O)[nH]1 [folic acidGlu3] | 17 ± 3 |  |
| Nc1nc2ncc(CNc3ccc(C(=O)NC(CCC(=O)NC(CCC(=O)NC(CCC(=O)NC(CCC(=O)NC(CCC(=O)O)C(=O)O)C(=O)O)C(=O)O)C(=O)O)C(=O)O)cc3)nc2c(=O)[nH]1 (stereo not drawn) [folic acidGlu5] | 1 ± 0.3 |  |
| Nc1nc2ncc(CNc3ccc(C(=O)N[C@@H](CCC(=O)O)C(=O)O)cc3)nc2c(=O)[nH]1 [folic acid] | 58 ± 5 |  |

Now from value to compound, other results behind:

| Ki [1, 6] [µM] | Compound | further results |
| --- | --- | --- |
| 10 ± 1 | CN(CC1CNc2nc(N)[nH]c(=O)c2N1C=O)c1ccc(C(=O)N[C@@H](CCC(=O)O)C(=O)O)cc1 (mixture of isomers) [(6RS)5-formyl,10-methylTHF] |  |
| 6 ± 3 | CN(CCC1CNc2nc(N)[nH]c(=O)c2N1C=O)c1ccc(C(=O)N[C@@H](CCC(=O)O)C(=O)O)cc1 (mixture of isomers) [(6RS)5-formyl,10-methylTHHF] |  |
| 0.03 ± 0.01 | Nc1nc2c(c(=O)[nH]1)NC(CN(C=O)c1ccc(C(=O)N[C@@H](CCC(=O)N[C@@H](CCC(=O)N[C@@H](CCC(=O)O)C(=O)O)C(=O)O)C(=O)O)cc1)CN2 (mixture of isomers) [(6RS)10-formylTHFGlu3] | fold increased affinity (Ki) compared to the substrate 5-formylTHF triglutamate (Km) [1]: 13 fold |
| 0.19 ± 0.02 | Nc1nc2c(c(=O)[nH]1)NC(CCN(C=O)c1ccc(C(=O)NC(CCC(=O)O)C(=O)O)cc1)CN2 (racemic) [(6RS)10-formylTHHF] | Ki fold lower than the Ki for 5-formylTHHF [1]: 3 fold |
| 5 ± 2 | Nc1nc2c(c(=O)[nH]1)NC(CN(C=O)c1ccc(C(=O)O)cc1)CN2 (racemic) [(6RS)10-formylTHPteroate] |  |
| 0.15 | Nc1nc2c(c(=O)[nH]1)NC(CN(C=O)c1ccc(C(=O)N[C@@H](CCC(=O)O)C(=O)O)cc1)CN2 (stereo partly drawn) [(6R)10-formylTHF, 10-formyltetrahydrofolate] | fold increased affinity for MTHFS (Ki) compared to the substrate 5-formylTHF (Km) [1]: 56 fold and 60 fold |

From US20090005385A1, “Treatment or Prevention of Cancer or Cardiovascular Disease with Methenyltetrahydrofolate Synthetases” (CORNELL RESEARCH FOUNDATION, INC., priority 2004, published 2009)
